Reference: patent publication US20210236678A1, “HOUSEHOLD PRODUCT DELIVERING WARMING AND/OR TINGLING SENSATIONS” (TAKASAGO INTERNATIONAL CORPORATION, priority 2016, published 2021)

What was measured:
[1] = test system: tingling sensation in the nose; conditions: 3% in Triethyl Citrate (TEC); panel of 80 subjects; scale 0 to +100
Method: Comparison of tingling effect between isopulegol and menthoxypropanediol
A panel of 80 subjects was selected to take part in a comparative test between isopulegol (available as Coolact (registered trademark) P) and menthoxypropanediol (CAS 87061-04-9, available as Coolact (registered trademark) 10).
The samples of isopulegol and menthoxypropanediol were prepared by dilution to 3% in Triethyl Citrate (TEC).
The subjects had to score whether they perceived a tingling sensation in the nose, on a scale of 0 (no sensation) to +100 (extremely tingling).

human TRPA1 = target: T1, human TRPA1 (Homo sapiens, UniProt O75762); test: Screening on receptors TRPA1 (Fluo-8 calcium fluorescence, FLIPR, HEK-293 cells); type: cell-based; conditions: for EC50: HEK-293 cells stably transfected with human TRPA1, agonist, normalised to spilanthol EC100, elemi oil molarity assumes molecular weight of elemol; for agonist activity on TRPA1 compared to spilanthol (reference): HEK-293 cells with human TRPA1
T1 construct: expressed in transfected cells; host or cells: HEK-293
Method: The following are the test protocols used in determining whether fragrance ingredients show a response on the TRPA1 and TRPV1 receptors which are associated with tingling and warming sensations respectively. In all cases, the reaction is measured by fluorescence imaging using high throughput screening equipment.
Method for Screening on Receptors TRPA1:
HEK-293 (Human Embryonic Kidney) cells stably transfected with human TRPA1 were grown in a culture medium of EMEM (medium Essential Medium Eagle with Earl's salts balanced salt solution (Lonza catalogue No BE12-125F), 5 mL of 200 mM Ultraglutamine 1 (Lonza Catalogue No BE17-605E/U1), 5 mL of 100× Penicillin/Streptomycin (Lonza Catalogue No DE17-602E) 50 mL of Fetal bovine serum (Euroclone Cat No ECS0180L) 2 mL of 100 mg/mL Genticin sulphate (G418 sulphate InvivoGen CatAnt-gn-5).
10,000 cells/well were seeded in a 384 MTP in complete medium. Then, after 24 hours, the culture medium was manually removed. The cells were loaded with 20 μL/well of 0.5× Fluo-8 NW dye in standard Tyrode's buffer (Screen Quest™ Fluo-8 No wash Calcium assay kit supplied by AAT Bioquest catalogue No 26316). The plate was incubated for 1 hour at room temperature in the dark. 10 μL/well of test chemaesthetic agents were injected and controlled with the FLIPR^TETRA (Molecular Devices). The emitted fluorescence signal at 520 nm was recorded for 3 minutes. The compound multiwall plate contained the samples at 8 different doses in quadruplicate data points. Dose response of the samples were performed starting from 100 mM concentration in 100% DMSO with a serial dilution of 1:2 and then diluted in assay buffer at the final concentration of 100 μM, 50 μM, 25 μM, 12.5 μM, 6 μM, 3 μM, 1.5 μM, and 0.7 μM.
In the compound plate were also present a dose response of the reference agonist at 8 concentrations and in duplicate. Spilanthol was the reference agonist for TRPA1 in this study. These reference controls dosed as 16 wells (duplicates for each concentration) of reference agonist at ECioo corresponded to the MAX signal response (100% activity).
There were also 16 wells of blanks, i.e. assay buffers without either a test sample or reference compound which corresponded to the MIN signal response (0% activity). MAX and MIN controls were used for data analysis (RZ' calculation) and normalization of compound activity.
For data analysis the response value was calculated as the maximum signal of the kinetic trace after the injection minus the median of the points before injection and multiplied by the normalization factor (NF). The normalisation factor was the baseline mean of all wells in the plate divided by the baseline of a specific well.
To calculate the % of activity of the sample the response value was normalized versus MAX signal controls and MIN Signal controls to obtain the activity % according to the following formula: […]
The normalized data in percent activity were then used to perform curve fitting and EC50 calculation corresponding to the concentration that gave 50% of activation of the receptor (within a curve fitting program within the data analysis software).

[2] = test system: tingling perception in the nose; test: Perception test for tingling agents (panel smells samples; rating and ranking); type: in vivo; conditions: panel of 20 subjects, smelled
Method: The reference spilanthol is contained in jambu and known for its tingling effect on the skin/the tongue (U.S. Pat. No. 9,890,567; J. Paulraj et al., Advances in Pharmacological Sciences, Vol. 2013, Article ID 510298, 22 pages). The samples were prepared as solutions of the pure raw materials at 1% in Triethyl Citrate (TEC), and portions decanted into small jars for testing. In a first part of the evaluation, the subjects of the panel smell the samples one by one and rate them on the following scale: tingling perception in the nose: 0 (not at all) to 100 (very strong sensation). In a second part of the evaluation, the subjects of the panel rank the […] agents from the less tingling agent (rank 1) to the more tingling agents (rank 4). The mean values obtain for the ranking where as follows: […]

[3] = test system: warming perception in the nose; test: Perception test for warming agents (panel smells samples; rating and ranking); type: in vivo; conditions: panel of 20 subjects; for Nemenyi multiple comparison test of warming ranking vs reference capsaicin / Mean rank (less warming = rank 1, more warming = rank 4): 1% in TEC; for Mean rank (less warming = rank 1, more warming = rank 4) / warming perception in the nose (rating), compared to the reference capsaicin: smelled; for warming perception in the nose (rating), compared to the reference capsaicin: 1% in Triethyl Citrate (TEC), scale 0 to 100, ANOVA and Student's t-test
human TRPV1 = target: T2, human TRPV1 (Homo sapiens, UniProt Q8NER1); test: Screening on receptors TRPV1 (fluorescence imaging, CHO-K1 cells); type: cell-based; conditions: for agonist activity on TRPV1 compared to capsaicin (reference): CHO-K1 cells with human TRPV1
T2 construct: expressed in transfected cells; host or cells: CHO-K1
T2 sequence (Q8NER1 whole entry): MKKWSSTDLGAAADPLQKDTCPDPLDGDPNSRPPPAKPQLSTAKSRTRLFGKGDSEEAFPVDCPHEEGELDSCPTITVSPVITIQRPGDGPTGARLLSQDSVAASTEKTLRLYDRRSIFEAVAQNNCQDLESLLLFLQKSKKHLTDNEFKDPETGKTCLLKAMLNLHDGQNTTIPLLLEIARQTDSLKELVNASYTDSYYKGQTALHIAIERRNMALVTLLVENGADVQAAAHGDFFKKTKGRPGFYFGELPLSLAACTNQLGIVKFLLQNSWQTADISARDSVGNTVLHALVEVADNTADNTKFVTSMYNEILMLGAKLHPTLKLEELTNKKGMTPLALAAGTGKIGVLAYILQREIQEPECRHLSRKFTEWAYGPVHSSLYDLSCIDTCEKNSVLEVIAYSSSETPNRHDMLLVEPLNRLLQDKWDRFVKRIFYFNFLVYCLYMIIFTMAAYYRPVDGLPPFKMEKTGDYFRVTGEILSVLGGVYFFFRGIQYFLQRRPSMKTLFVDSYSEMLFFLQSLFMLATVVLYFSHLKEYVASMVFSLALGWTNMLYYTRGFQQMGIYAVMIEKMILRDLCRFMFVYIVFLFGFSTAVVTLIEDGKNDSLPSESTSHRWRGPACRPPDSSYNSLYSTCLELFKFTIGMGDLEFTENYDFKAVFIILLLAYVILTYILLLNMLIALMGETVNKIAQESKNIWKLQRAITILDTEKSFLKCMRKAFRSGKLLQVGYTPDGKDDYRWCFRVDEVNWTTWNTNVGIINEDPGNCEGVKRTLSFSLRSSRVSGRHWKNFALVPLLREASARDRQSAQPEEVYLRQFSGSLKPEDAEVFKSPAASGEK

T1 sequence (O75762 whole entry): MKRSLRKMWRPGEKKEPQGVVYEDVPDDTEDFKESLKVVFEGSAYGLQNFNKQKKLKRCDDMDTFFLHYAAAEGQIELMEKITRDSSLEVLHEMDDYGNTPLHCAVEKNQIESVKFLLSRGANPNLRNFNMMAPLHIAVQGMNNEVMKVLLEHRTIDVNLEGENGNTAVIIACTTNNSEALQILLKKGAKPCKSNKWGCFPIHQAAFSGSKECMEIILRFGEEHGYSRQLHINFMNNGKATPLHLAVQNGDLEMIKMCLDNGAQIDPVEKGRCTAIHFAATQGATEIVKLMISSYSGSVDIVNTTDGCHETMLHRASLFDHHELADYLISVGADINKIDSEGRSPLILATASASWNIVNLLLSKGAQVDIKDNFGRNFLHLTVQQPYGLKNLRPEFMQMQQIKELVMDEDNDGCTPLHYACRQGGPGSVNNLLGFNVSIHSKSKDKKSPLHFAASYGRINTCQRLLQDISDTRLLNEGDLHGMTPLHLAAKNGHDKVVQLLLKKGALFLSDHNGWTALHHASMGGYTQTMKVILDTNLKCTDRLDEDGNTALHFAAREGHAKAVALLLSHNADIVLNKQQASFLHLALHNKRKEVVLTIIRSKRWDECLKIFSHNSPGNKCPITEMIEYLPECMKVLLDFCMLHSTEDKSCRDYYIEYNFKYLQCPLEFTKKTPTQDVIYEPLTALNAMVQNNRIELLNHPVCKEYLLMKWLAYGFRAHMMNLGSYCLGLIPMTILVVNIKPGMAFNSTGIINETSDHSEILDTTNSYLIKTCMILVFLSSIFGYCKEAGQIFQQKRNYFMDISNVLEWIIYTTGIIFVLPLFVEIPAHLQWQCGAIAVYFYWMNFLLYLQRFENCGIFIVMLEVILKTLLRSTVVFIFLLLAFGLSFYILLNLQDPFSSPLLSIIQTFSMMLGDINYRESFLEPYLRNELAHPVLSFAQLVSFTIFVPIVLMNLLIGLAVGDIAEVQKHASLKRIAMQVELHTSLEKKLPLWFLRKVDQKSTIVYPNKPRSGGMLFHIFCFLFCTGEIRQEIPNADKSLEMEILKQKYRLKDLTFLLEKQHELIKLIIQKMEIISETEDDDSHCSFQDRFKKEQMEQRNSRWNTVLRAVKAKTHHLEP

| SMILES | tingling sensation in the nose, isopulegol compared with menthoxypropanediol [1] | EC50 (human TRPA1) | agonist activity on TRPA1 compared to spilanthol (reference) (human TRPA1) | Nemenyi multiple comparison test of warming ranking vs reference capsaicin [3] | Mean rank (less warming = rank 1, more warming = rank 4) [3] | warming perception in the nose (rating), compared to the reference capsaicin [3] | agonist activity on TRPV1 compared to capsaicin (reference) (human TRPV1) | other results |
| --- | --- | --- | --- | --- | --- | --- | --- | --- |
| CC(C)[C@@H]1CC[C@@H](C)C[C@H]1OCC(O)CO (stereo partly shown) [menthoxypropanediol] | lower tingling sensation | 200 µM | comparable agonists for TRPA1 | – | – | – | – | – |
| C/C=C/C=C\CC/C=C/C(=O)NCC(C)C [spilanthol] | – | 35.5 µM | – | – | – | – | – | Mean rank (less tingling = rank 1, more tingling = rank 4) ([2]; 1% in TEC): 1.150; tingling perception in the nose (rating), compared to the reference spilanthol ([2]; 1% in Triethyl Citrate (TEC), scale 0 to 100, ANOVA and Student's t-test): little effect at all |
| C=C(C)[C@@H]1CC[C@@H](C)C[C@H]1O [isopulegol] | improved tingling perception | 57 µM | comparable agonists for TRPA1 | – | – | – | – | – |
| CCCCOCc1ccc(O)c(OC)c1 [vanillyl butyl ether] | – | – | – | significantly more warming | 2.925 | improved warming perception | weaker agonists for TRPV1 than capsaicin | EC50 (human TRPV1): 7.58 µM |
| CCOCc1ccc(O)c(OC)c1 [vanillyl ethyl ether] | – | – | – | significantly more warming | 2.450 | improved warming perception | weaker agonists for TRPV1 than capsaicin | – |
| COc1cc(CNC(=O)CCCC/C=C/C(C)C)ccc1O [capsaicin, reference compound] | – | – | – | – | 1.650 | – | – | – |
